Data from patent US20260028342A1, “ENHANCING ANTIMETASTASIS ACTIVITY USING TARGETED PROTEIN DEGRADATION” (THE UNIVERSITY OF NORTH CAROLINA AT CHAPEL HILL, priority 2022, published 2026).
Entries after “also recorded” stand apart in the source; their conditions may differ. Like-named read-outs stand apart in the source and are kept apart here.

How the values were obtained:
[1] = test system: PNC in HeLa cancer cells; assay: PNC inhibition: IC50 inhibiting PNC in cancer cells (HeLa); format: cell-based; conditions: for IC50: Homo sapiens, HeLa cancer cells, inhibiting PNC; for fold more potent than metarrestin: PNC inhibition, versus metarrestin; for IC50 nucleoli.normal/IC50 PNC.cancer: ratio RPE1 nucleoli IC50 to HeLa PNC IC50
Protocol: PNC inhibitory activity was determined using fluorescent imaging techniques known in the art, such as: a CellTiter-Glo® luminescence assay from Promega to determine cell viability and/or fluorescent imaging studies with an IN Cell Analyzer 1000 automated system in combination with a green fluorescent protein (GFP) tagged PNC localized complex.

[2] = test system: nucleoli in RPE1 normal cells; assay: IC50 disrupting nucleoli in normal cells (RPE1); format: cell-based; conditions: Homo sapiens, RPE-1
[3] = molecular target: T1, eEF1A2 (Homo sapiens, UniProt Q05639); assay: Western blot analysis of eEF1A2 protein levels; format: cell-based; design: dose or concentration left out as unconfirmed; conditions: actin loading control, vehicle as standard of one; preliminary
T1 construct: Compound 49 treatment for 20 hours reduced eEF1A2 by Western blot analysis; endogenous in cells
T1 sequence (Q05639 1-463): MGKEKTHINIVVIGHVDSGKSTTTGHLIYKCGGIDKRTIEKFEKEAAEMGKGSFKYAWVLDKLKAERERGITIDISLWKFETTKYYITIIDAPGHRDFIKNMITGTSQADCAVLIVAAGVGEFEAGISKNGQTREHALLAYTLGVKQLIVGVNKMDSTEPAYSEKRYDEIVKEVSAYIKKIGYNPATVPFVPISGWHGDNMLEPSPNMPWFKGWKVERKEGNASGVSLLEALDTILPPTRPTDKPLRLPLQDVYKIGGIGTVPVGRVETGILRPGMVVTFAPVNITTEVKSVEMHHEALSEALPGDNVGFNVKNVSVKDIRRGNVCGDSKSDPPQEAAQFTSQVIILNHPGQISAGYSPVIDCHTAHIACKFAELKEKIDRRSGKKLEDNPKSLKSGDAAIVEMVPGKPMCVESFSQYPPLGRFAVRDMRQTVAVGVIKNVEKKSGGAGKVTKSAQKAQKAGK
From the text: FIGS. 6A and 6B show results from metarrestin-PROTAC studies.

[4] = test system: PNC prevalence in HeLA cells; assay: Percentage of HeLa cells with PNCs after treatment (FIG. 7); format: cell-based
From the text: PNC prevalence is correlated with metastatic potential and can be disrupted through modulation of the elongation factor eEF1A.

[5] = test system: PANC1; assay: Orthotopic mouse model with 3-D cultured PANC1 cells (metastasis); format: in vivo
Protocol: (§1) FIGS. 2A-2F show metarrestin and various studies.
(§2) Using a high-content screen to measure reduction of PNC prevalence, noncytotoxic PNC inhibitor hit compounds were discovered such as metarrestin, (FIG. 2A). […] Metarrestin was further evaluated in xenograft models of PC3M (metastatic prostate cancer cell line) and in a breast cancer patient-derived xenograft (PDX, harvested from a lung metastasis site). […] When the survival of the PANC1 tumor-bearing animals was evaluated, two sets of experiments were performed to determine efficacy at two treatment starting points, either after (eight weeks post-inoculation) or prior to (four weeks post-inoculation) macrometastasis had been established.

[6] = test system: PANC1; assay: Survival of PANC1 tumor-bearing animals; format: in vivo, mouse; conditions: for animal survival, treatment started post-macrometastasis formation / animal survival, treatment started prior to macrometastasis formation: food pellets, 10 mg/kg daily; for animal survival, treatment started post-macrometastasis formation: start eight weeks post-inoculation, FIG. 2F; for animal survival, treatment started prior to macrometastasis formation: start four weeks post-inoculation, FIG. 2E; for organ tumor replacement at autopsy (liver, lung, pancreas): treatment after macrometastasis, versus regular food pellets, FIG. 2G
Protocol: as §1, §2

[7] = Large mammal dose-escalation studies; format: in vivo; conditions: overloading dosing
From the text: Thus, the potential for dose-limiting neurological side effects could constrain the patient population to drug-resistant or late-stage individuals. However, cancer patient outcomes would generally greatly benefit from adjuvant or co-administration use of an anti-metastasis agent such as metarrestin at any stage of cancer. Therefore, in order to improve the cancer cell selectivity and reduce potential toxicity to normal cells, development of next generation metarrestin derivatives that selectively enhance drug efficacy against cancer cells over normal cells were needed.

[8] = molecular target: T1, eEF1A2; assay: Competition with anchored biotinylated metarrestin-eEF1A2 complex; format: binding; conditions: FIG. 3A
From the text: (§3) FIGS. 3A-3E show metarrestin binding and cellular data. FIG. 3A presents data showing that metarrestin specifically binds eEF1A2, and increased eEF1A2 enhances PNCs and metastasis formation. […] Mice from both groups were harvested six weeks after implantation and subjected to necropsy. […] Histopathological images (H&E) of livers (black scale bar=250 μm, white scale bar=100 μm) are shown on the right. Insets depict representative metastatic lesions.
(§4) With respect to the metarrestin target eEF1A2, the biased expression of eEF1A2 in cancer cells over normal adult cells (except neuronal cells) was used to selectively target cancer cells. […] Increased eEF1A2 enhances PNC number per cell (FIG. 3C) and metastasis formation (FIG. 3E). […] Expression of eEF1A2 is associated with cancer metastasis and correlates with poor patient outcomes.

[9] = molecular target: T1, eEF1A2; assay: Thermal stability assay using PC3M cell lysate; format: binding; conditions: FIG. 3B
From the text: as §3, §4

[10] = test system: PNC in PC3M cells; assay: PNC disassembly in PC3M cells with eEF1A2 overexpression; format: cell-based; conditions: FIG. 3D
From the text: as §3, §4

[11] = molecular target: T1, eEF1A2; conditions: similar treatment conditions, reference [5]; cited from earlier work
[12] = test system: PC3M (metastatic prostate cancer cell line); conditions: PC3M xenograft, reference [5]; cited from earlier work
[13] = test system: breast cancer patient-derived xenograft; conditions: PDX harvested from a lung metastasis site, reference [5]; cited from earlier work
[14] = reference [29], cited from earlier work
[15] = daily treatment for up to three months, animals, reference [5]; cited from earlier work
[16] = test system: migration and invasion; conditions: reference [5]; cited from earlier work

In the case of N=c1c2c(-c3ccccc3)c(-c3ccccc3)n(Cc3cccc(CNC(=O)CCCCCNc4cccc5c4C(=O)N(C4CCC(=O)NC4=O)C5=O)c3)c2ncn1C1CCC(O)CC1 (stereo not shown) [Compound 46], the IC50 [1] is reported as 0.11 µM, the “fold more potent than metarrestin” value [1] is reported as “threefold” and the “IC50 nucleoli.normal/IC50 PNC.cancer” value [1] is reported as 4.27. The IC50 [2] was 0.47 µM.
For O=C1CCC(N2C(=O)c3cccc(NCCCCCNC(=O)c4ccc(Cn5c(-c6ccccc6)c(-c6ccccc6)c6c(NC7CCC(O)CC7)ncnc65)cc4)c3C2=O)C(=O)N1 (stereo not shown) [Compound 49], the IC50 [1] was 0.025 µM, the “fold more potent than metarrestin” value [1] was 14 fold and the “IC50 nucleoli.normal/IC50 PNC.cancer” value [1] was 4. The IC50 [2] was 0.1 µM and the “eEF1A2 protein levels by Western blot” value [3] was “significantly reduced; also recorded: significant reduction”.
For N=c1c2c(-c3ccccc3)c(-c3ccccc3)n(Cc3ccccc3)c2ncn1[C@H]1CC[C@H](OC(=O)CCCNc2cccc3c2C(=O)N(C2CCC(=O)NC2=O)C3=O)CC1 (stereo partly shown) [Compound 56], the “PNC prevalence (percentage of cells with PNCs)” value [4] was “almost complete disruption of PNC prevalence” and the “PNC prevalence (percentage of cells with PNCs)” value ([4]; 0.1 μM) was “measureable reduction in PNC prevalence”.
For N=c1c2c(-c3ccccc3)c(-c3ccccc3)n(Cc3ccccc3)c2ncn1[C@H]1CC[C@H](OC(=O)CCOCCOCCOCCNc2cccc3c2C(=O)N(C2CCC(=O)NC2=O)C3=O)CC1 (stereo partly shown) [Compound 57], the “PNC prevalence (percentage of cells with PNCs)” value [4] was “almost complete disruption of PNC prevalence” and the “PNC prevalence (percentage of cells with PNCs)” value ([4]; 0.1 μM) was “measureable reduction in PNC prevalence”.
For N=c1c2c(-c3ccccc3)c(-c3ccccc3)n(Cc3ccccc3)c2ncn1[C@H]1CC[C@H](O)CC1 [Metarrestin], the IC50 [1] was 0.36 µM, the “IC50 nucleoli.normal/IC50 PNC.cancer” value [1] was 6.25 and the IC50 [2] was 2.5 µM. For the same compound, the “metastasis as organ/tumor ratio in liver and lung” value ([5]; 5 mg/kg and 25 mg/kg, FIG. 2B) was “inhibits metastasis”, the “metastatic burden in lung and liver” value ([5]; 25 mg/kg IP daily for four weeks) was “significantly reduced the metastatic burden” and the primary tumor growth ([5]; 25 mg/kg IP daily for four weeks, data not shown) was “only modest reduction”. For the same compound, the “metastasis as metastatic deposits in liver and lung” value ([5]; 25 mg/kg, FIG. 2C) was “inhibits metastasis”, the “animal survival, treatment started post-macrometastasis formation” value ([6]; 10 mg/kg) was “significantly improved animal survival” and the “animal survival, treatment started post-macrometastasis formation” value ([6]; listed as metarrestin, 10 mg/kg) was “effective at extending survival”. The “animal survival, treatment started prior to macrometastasis formation” value [6] was “drastic animal survival advantages”, the “animal survival, treatment started prior to macrometastasis formation” value ([6]; 10 mg/kg) was “completely prevented metastasis-induced death” and the “organ tumor replacement at autopsy (liver, lung, pancreas)” value [6] was “did not show significant tumor replacement”. The “organ tumor replacement at autopsy (liver, lung, pancreas)” value ([6]; listed as metarrestin) was “less tumors were present”, the seizures [7] was “reversible seizures” and the “competition of recombinant eEF1A2 binding to anchored biotinylated metarrestin” value [8] was “effectively outcompeted”. The “thermal stabilization of eEF1A2” value [9] was “stabilized eEF1A; also recorded: stabilized eEF1A2”, the “change of IC50 for PNC disassembly on eEF1A2 overexpression” value [10] was “increased the IC50” and the eEF1A2 protein levels [11] was “does not reduce the protein levels”. For the same compound, the organ metastasis [12] was “significant inhibition of organ metastasis”, the metastatic tumor growth [13] was “metastatic tumor growth inhibition” and the half-life ([14]; allows once-a-day dosing) was “long”. For the same compound, the tissue distribution [14] was “good”, the adverse effects [15] was “does not induce discernable adverse effects” and the “in vitro anti-oncogenic properties” value [16] was “migration and invasion inhibition”.
